Source: patent publication US20070128217A1 (priority 2003, published 2007)

Tests used:
[1] = tested on: antibodies in sera from SARS patients (sera 1a, 1b, 2, 6, 37, 62, London, SARS-yellow, SARS-green); format: binding, human; design: Binding of serum 6 to linear peptides of protein X1 of SARS-CoV Urbani / Binding of serum 37 to linear peptides of protein X1 of SARS-CoV Urbani / Binding of serum 6 to looped/cyclic peptide (PEPSCAN-ELISA) / Binding of serum 37 to looped/cyclic peptide (PEPSCAN-ELISA) / Binding of serum 37 to looped/cyclic peptides of protein X1 of SARS-CoV Urbani / Binding of serum 6 to linear peptides of protein X2 / Binding of serum 37 to linear peptides of protein X2 / Binding of serum 37 to looped/cyclic peptides of protein X2 of SARS-CoV Urbani / Binding of serum 6 to linear peptides of protein M of SARS-CoV Urbani / Binding of serum 37 to linear peptides of protein M of SARS-CoV Urbani / Binding of serum 6 to looped/cyclic peptides of protein M of SARS-CoV Urbani / Binding of serum 37 to looped/cyclic peptides of protein M of SARS-CoV Urbani / Binding of serum 6 to linear peptides of protein X3 of SARS-CoV Urbani / Binding of serum 37 to linear peptides of protein X3 of SARS-CoV Urbani / Binding of serum 37 to looped/cyclic peptides of protein X3 of SARS-CoV Urbani / Binding of serum 6 to linear peptides of protein X4 of SARS-CoV Urbani / Binding of serum 37 to linear peptides of protein X4 of SARS-CoV Urbani / Binding of serum 37 to looped/cyclic peptides of protein X4 of SARS-CoV Urbani / Binding of serum 6 to linear peptides of protein X5 of SARS-CoV Urbani / Binding of serum 37 to linear peptides of protein X5 of SARS-CoV Urbani / Binding of serum 37 to looped/cyclic peptides of protein X5 of SARS-CoV Urbani / Binding of serum 6 to linear peptides of protein N of SARS-CoV Urbani / Binding of serum 37 to linear peptides of protein N of SARS-CoV Urbani / Binding of serum 6 to linear peptide (PEPSCAN-ELISA) / Binding of serum 1a to looped/cyclic peptides of protein N of SARS-CoV Urbani / Binding of serum 1b to looped/cyclic peptides of protein N of SARS-CoV Urbani / Binding of serum 2 to looped/cyclic peptides of protein N of SARS-CoV Urbani / Binding of serum 6 to looped/cyclic peptides of protein N of SARS-CoV Urbani / Binding of serum 37 to looped/cyclic peptides of protein N of SARS-CoV Urbani / Binding of serum 62 to looped/cyclic peptides of protein N of SARS-CoV Urbani / Binding of serum London to looped/cyclic peptides of protein N of SARS-CoV Urbani / Binding of serum SARS-green to looped/cyclic peptides of protein N of SARS-CoV Urbani: unit not given here
[2] = tested on: rabbit serum obtained by immunizing a rabbit with the SARS-CoV strain Frankfurt 1; format: binding; design: Binding of a rabbit serum to linear peptides / Binding of a rabbit serum to looped peptides / Rabbit serum linear peptides / Rabbit serum looped peptides / Binding of a rabbit serum to linear peptides of protein N of SARS-CoV Urbani (Rabbit serum linear peptides) / Binding of a rabbit serum to looped/cyclic peptides of protein N of SARS-CoV Urbani (Rabbit serum looped peptides): unit not given here
[3] = tested on: control sera (pooled serum of ten healthy LUMC hospital workers; commercial negative donor pooled serum from the Dutch bloodbank); format: binding, human

In the case of MLHSSSLTSLLKTHR, the “Binding of serum 1a to linear peptides of protein X2” value [1] is reported as 0.6, the “Binding of serum 1a to looped/cyclic peptides of protein X2 of SARS-CoV Urbani” value [1] is reported as 0.5 and the “Binding of serum 1b to linear peptides of protein X2” value [1] is reported as 0.4. The “Binding of serum 1b to looped/cyclic peptides of protein X2 of SARS-CoV Urbani” value [1] was 0.5, the “Binding of serum 2 to linear peptides of protein X2” value [1] was 0.4 and the “Binding of serum 2 to looped/cyclic peptides of protein X2 of SARS-CoV Urbani” value [1] was 0.5. For the same sequence, the “Binding of serum 6 to linear peptides of protein X2” value [1] was 0.6, the “Binding of serum 6 to looped/cyclic peptides of protein X2 of SARS-CoV Urbani” value [1] was 0.2 and the “Binding of serum 37 to linear peptides of protein X2” value [1] was 0.5. The “Binding of serum 37 to looped/cyclic peptides of protein X2 of SARS-CoV Urbani” value [1] was 0.3, the “Binding of serum 62 to linear peptides of protein X2” value [1] was 0.5 and the “Binding of serum 62 to looped/cyclic peptides of protein X2 of SARS-CoV Urbani” value [1] was 0.5. The “Binding of serum London to linear peptides of protein X2” value [1] was 0.6, the “Binding of serum London to looped/cyclic peptides of protein X2 of SARS-CoV Urbani” value [1] was 0.2 and the “Binding of serum SARS-green to linear peptides of protein X2” value [1] was 0.5. The “Binding of serum SARS-green to looped/cyclic peptides of protein X2 of SARS-CoV Urbani” value [1] was 0.4, the “Binding of serum SARS-yellow to linear peptides of protein X2” value [1] was 0.5 and the “Binding of serum SARS-yellow to looped/cyclic peptides of protein X2 of SARS-CoV Urbani” value [1] was 0.5. The “Binding of a rabbit serum to linear peptides” value [2] was 0.2, the “Binding of a rabbit serum to looped peptides” value [2] was 0.5 and the “Binding of Control Serum Blood-Bank to Looped peptides” value [3] was 0.6. The “Binding of Control serum Blood-bank to linear peptides” value [3] was 0.5, the “Binding of Control serum LUMC to linear peptides” value [3] was 0.4 and the “Binding of Control serum LUMC to looped peptides” value [3] was 0.5.

For RIAIWNLDVIISSIV, the “Binding of serum 1a to linear peptides of protein X3 of SARS-CoV Urbani” value [1] was 0.7, the “Binding of serum 1a to looped/cyclic peptides of protein X3 of SARS-CoV Urbani” value [1] was 0.8 and the “Binding of serum 1b to linear peptides of protein X3 of SARS-CoV Urbani” value [1] was 0.3. For the same sequence, the “Binding of serum 1b to looped/cyclic peptides of protein X3 of SARS-CoV Urbani” value [1] was 0.5, the “Binding of serum 2 to linear peptides of protein X3 of SARS-CoV Urbani” value [1] was 0.6 and the “Binding of serum 2 to looped/cyclic peptides of protein X3 of SARS-CoV Urbani” value [1] was 0.8. The “Binding of serum 6 to linear peptides of protein X3 of SARS-CoV Urbani” value [1] was 0.5, the “Binding of serum 6 to looped/cyclic peptides of protein X3 of SARS-CoV Urbani” value [1] was 0.4 and the “Binding of serum 37 to linear peptides of protein X3 of SARS-CoV Urbani” value [1] was 0.5. The “Binding of serum 37 to looped/cyclic peptides of protein X3 of SARS-CoV Urbani” value [1] was 0.6, the “Binding of serum 62 to linear peptides of protein X3 of SARS-CoV Urbani” value [1] was 0.7 and the “Binding of serum 62 to looped/cyclic peptides of protein X3 of SARS-CoV Urbani” value [1] was 0.7. The “Binding of serum London to linear peptides of protein X3 of SARS-CoV Urbani” value [1] was 0.7, the “Binding of serum London to looped/cyclic peptides of protein X3 of SARS-CoV Urbani” value [1] was 0.2 and the “Binding of serum SARS-green to linear peptides of protein X3 of SARS-CoV Urbani” value [1] was 0.3. For the same sequence, the “Binding of serum SARS-green to looped/cyclic peptides of protein X3 of SARS-CoV Urbani” value [1] was 0.3, the “Binding of serum SARS-yellow to linear peptides of protein X3 of SARS-CoV Urbani” value [1] was 0.4 and the “Binding of serum SARS-yellow to looped/cyclic peptides of protein X3 of SARS-CoV Urbani” value [1] was 1.0. The “Rabbit serum linear peptides” value [2] was 0.3, the “Rabbit serum looped peptides” value [2] was 0.4 and the “Binding of Control Serum Blood-Bank to Looped peptides of the protein X3 of SARS-CoV Urbani” value [3] was 0.9. The “Binding of Control serum Blood-bank to linear peptides of the protein X3 of SARS-CoV Urbani” value [3] was 0.7, the “Binding of Control serum LUMC to linear peptides of the protein X3 of SARS-CoV Urbani” value [3] was 0.6 and the “Binding of Control serum LUMC to looped peptides of the protein X3 of SARS-CoV Urbani” value [3] was 0.8.

In the case of ACLCKHKKVSTNLCT, the “Binding of serum 1a to looped/cyclic peptides of protein X2 of SARS-CoV Urbani” value [1] is reported as 0.3, the “Binding of serum 1b to looped/cyclic peptides of protein X2 of SARS-CoV Urbani” value [1] is reported as 0.3 and the “Binding of serum 2 to looped/cyclic peptides of protein X2 of SARS-CoV Urbani” value [1] is reported as 0.2. For the same sequence, the “Binding of serum 6 to looped/cyclic peptides of protein X2 of SARS-CoV Urbani” value [1] was 0.2, the “Binding of serum 37 to looped/cyclic peptides of protein X2 of SARS-CoV Urbani” value [1] was 0.3 and the “Binding of serum 62 to looped/cyclic peptides of protein X2 of SARS-CoV Urbani” value [1] was 0.4. The “Binding of serum London to looped/cyclic peptides of protein X2 of SARS-CoV Urbani” value [1] was 0.2, the “Binding of serum SARS-green to looped/cyclic peptides of protein X2 of SARS-CoV Urbani” value [1] was 0.3 and the “Binding of serum SARS-yellow to looped/cyclic peptides of protein X2 of SARS-CoV Urbani” value [1] was 0.3. For the same sequence, the “Recognition of the peptide by sera of SARS-CoV infected individuals, and form (linear, looped/cyclic) in which it is recognized” value [1] was “recognized in linear form”, the “Binding of a rabbit serum to linear peptides” value [2] was 0.3 and the “Binding of a rabbit serum to looped peptides” value [2] was 0.3. The “Binding of Control Serum Blood-Bank to Looped peptides” value [3] was 0.2, the “Binding of Control serum Blood-bank to linear peptides” value [3] was 0.9 and the “Binding of Control serum LUMC to linear peptides” value [3] was 0.8. For the same sequence, the “Binding of Control serum LUMC to looped peptides” value [3] was 0.3.
